Laboratory results published in patent US20240158404A1, “MODULATORS OF ALPHA-1 ANTITRYPSIN” (Vertex Pharmaceuticals Incorporated, priority 2022, published 2024).

Assays:
AAT = biological target: T1, AAT (Homo sapiens, UniProt P01009, E366K); assay: Compound Quality score (potency in AAT functional assay multiplied by unbound clearance); settings: compound potency (EC50) x unbound clearance; class symbols
T1 construct: expressed in transfected cells; host or cells: NL20 human bronchial epithelial cells (NL20-SI cell line), with doxycycline added alongside the compounds
T1 sequence (P01009 25-418 E366K): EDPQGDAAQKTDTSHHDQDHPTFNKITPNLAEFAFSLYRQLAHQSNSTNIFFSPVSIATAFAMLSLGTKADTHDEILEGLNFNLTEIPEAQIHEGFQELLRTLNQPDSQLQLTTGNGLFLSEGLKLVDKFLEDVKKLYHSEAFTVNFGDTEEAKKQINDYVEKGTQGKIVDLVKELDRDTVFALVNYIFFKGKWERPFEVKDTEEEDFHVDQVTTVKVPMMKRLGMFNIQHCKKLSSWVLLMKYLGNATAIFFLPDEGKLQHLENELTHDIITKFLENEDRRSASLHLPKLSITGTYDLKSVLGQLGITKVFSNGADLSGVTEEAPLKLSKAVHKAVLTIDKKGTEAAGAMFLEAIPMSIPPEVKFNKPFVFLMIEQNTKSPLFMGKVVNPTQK
From the text: As used herein, the term “Compound Quality” refers to the potency of a compound multiplied (x) by the compound's unbound clearance as measured using the assays described in Example 6.
The terms “unbound clearance” refer to unbound intrinsic clearance (unbound CLint) in hepatocytes—the intrinsic clearance a drug would have in the absence of protein binding. Unbound CLint=CLint,hep/fu,hep, where CLint,hep is intrinsic clearance in hepatocytes and fu,hep is unbound fraction in hepatocytes.
A key consideration for the selection of compounds suitable for clinical development is the projection of human dose as described in Equations 1-3. Two key parameters that comprise the dose equation are the unbound clearance of a compound and the plasma efficacious exposure (also referred to herein as compound potency). Together these parameters are known to one skilled in the art as a measurement of Compound Quality and suitability for advancement into clinical development. Thus, when evaluating AAT modulator compounds, one needs to consider both the potency and unbound clearance parameters (i.e., Compound Quality). The relationship between these two parameters can be challenging to predict.
The values provided in the table below are calculated by multiplying the EC50 of each of the compounds by the result from the clearance assay procedures described in Section C above and rounded to two significant figures. In the table below, the following meanings apply for Compound Quality (i.e., compound potency x unbound clearance) values: “++++” means ≤0.2; “+++” means >0.20 and ≤0.30; “++” means >0.30 and ≤0.40; “+” means >0.40 and ≤0.50.

[1] = Exposure multiple in rat 5-day toxicology studies; format: in vivo; parameters: key to Exposure Multiple: ratio of tox-species AUC to target efficacious AUCss; settings: for EM Score: based on the maximum exposure multiple achieved in the rat 5-day toxicology study; for Exposure Multiple: rat 5-day toxicology study, vs predicted human efficacious exposure
From the text: “Exposure multiple” as used herein, refers to an assessment of relative compound exposure in toxicology studies. The calculation of an exposure multiple is accomplished by comparing the exposure (AUC) achieved in a toxicology species relative to the target efficacious exposure at steady state (AUCss). The larger exposure multiple provides the opportunity to explore higher doses relative to efficacious concentration in clinical development. However, the exposure that results in an adverse toxicological outcome is unpredictable.
The calculation of an exposure multiple is accomplished by comparing the plasma exposure (AUC) achieved in a toxicology species relative to the target efficacious exposure at steady state (AUCss). […] In addition, this exposure multiple can allow for further exploration of the desired pharmacology due to the opportunity for a larger window established in toxicology studies. However, the exposure that results in a toxicological outcome in preclinical toxicology studies is unpredictable.
Human exposure multiple (EM) values shown relate to the fold increase in exposure achieved in rat 5-day toxicology studies for a given dose relative to the predicted efficacious exposure anticipated in human (based on cellular NL20 EC50 in vitro efficacy). The exposure multiple score is based on the maximum exposure multiple achieved in the given study. This allows relative comparison across compounds when also considering the administered dose. […] In the tables below, the following meanings apply for exposure multiple scores: “−” means <1; “+” means 1-10; “++” means 10-20; “+++” means 20-30; “++++” means 30-50; and “+++++” means >50.

SMILES | Compound Quality (AAT) | EM Score [1] | Exposure Multiple ([1]; Bid dose 50 (daily 100)) | Exposure Multiple ([1]; Bid dose 200 (daily 400)) | Exposure Multiple ([1]; Bid dose 500 (daily 1000)) | Exposure Multiple ([1]; Bid dose 150 (daily 300)) | Exposure Multiple ([1]; Bid dose 300 (daily 600)) | Exposure Multiple ([1]; Bid dose 400 (daily 800))
CC[C@@](O)(COC)c1c(-c2ccc(C(=O)O)cc2)c2c(F)c3[nH]ncc3cc2n1-c1ccc(F)c(C)c1 [Compound 2, (S)-4-(8-fluoro-5-(4-fluoro-3-methylphenyl)-6-(2-hydroxy-1-methoxybutan-2-yl)-1,5-dihydropyrrolo[2,3-f]indazol-7-yl)benzoic acid] | +++ (“+++” means >0.20 and ≤0.30) | ++++ (“++++” means 30-50) | 2 | 10 | 40 |  |  | 
CC[C@@](O)(COC)c1c(-c2ccc(C(=O)O)cc2)c2c(F)c3[nH]ncc3cc2n1-c1ccc(F)c(F)c1 [Compound 5, (S)-4-(5-(3,4-Difluorophenyl)-8-fluoro-6-(2-hydroxy-1-methoxybutan-2-yl)-1,5-dihydropyrrolo[2,3-f]indazol-7-yl)benzoic acid] | ++++ (“++++” means ≤0.2) | +++++ (“+++++” means >50) | 39 |  |  | 114 | 173 | 
CC[C@@](O)(COC)c1c(-c2ccc(C(=O)O)cc2)c2c(F)c3[nH]ncc3cc2n1-c1ccc(F)c(Cl)c1 [Compound 4] | +++ (“+++” means >0.20 and ≤0.30) | ++++ (“++++” means 30-50) | 8 | 21 |  |  |  | 32
